What was measured:
[1] = target: T1, Stat1 (Mus musculus, UniProt P42225); experiment: In vitro Stat1 DNA-binding activity assay, EMSA with hSIE or MGFe probe
T1 construct: Nuclear extract preparation from NIH3T3 stimulated by rhIL-6, NIH3T3/hEGFR stimulated by rhEGF; endogenous in cells; host or cells: NIH3T3/hEGFR fibroblasts stimulated with rhEGF (nuclear extract)
T1 sequence (P42225 2-749 limits assumed): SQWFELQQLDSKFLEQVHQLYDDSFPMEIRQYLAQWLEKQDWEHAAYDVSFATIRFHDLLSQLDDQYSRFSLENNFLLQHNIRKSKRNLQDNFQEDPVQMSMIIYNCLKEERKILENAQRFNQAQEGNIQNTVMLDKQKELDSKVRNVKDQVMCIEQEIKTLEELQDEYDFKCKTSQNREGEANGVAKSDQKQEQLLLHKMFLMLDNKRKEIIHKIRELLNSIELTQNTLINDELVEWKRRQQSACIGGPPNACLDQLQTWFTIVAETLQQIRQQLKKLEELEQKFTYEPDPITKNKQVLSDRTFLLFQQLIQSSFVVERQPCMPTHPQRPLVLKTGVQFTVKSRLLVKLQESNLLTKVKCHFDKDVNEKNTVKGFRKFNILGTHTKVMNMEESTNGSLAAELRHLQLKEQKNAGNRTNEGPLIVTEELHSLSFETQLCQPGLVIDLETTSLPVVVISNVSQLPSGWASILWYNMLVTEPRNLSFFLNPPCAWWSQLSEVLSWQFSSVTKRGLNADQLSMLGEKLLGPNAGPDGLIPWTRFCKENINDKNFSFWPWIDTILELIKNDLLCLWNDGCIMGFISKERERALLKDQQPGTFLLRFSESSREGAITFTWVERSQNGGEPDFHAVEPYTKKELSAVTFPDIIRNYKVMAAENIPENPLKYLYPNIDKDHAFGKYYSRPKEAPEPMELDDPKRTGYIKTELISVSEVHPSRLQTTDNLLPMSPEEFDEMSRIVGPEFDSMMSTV
Description: (§1) FIGS. 1A-1E. Inhibition of in vitro Stat3 DNA-binding activity by a platinum complex. Nuclear extracts or cell lysates containing activated Stat1, Stat3 and Stat5, or E2F1 prepared from NIH3T3/hEGFR that are stimulated with EGF or Sf-9 insect cells that are infected with baculovirus expressing Stat1, Stat3, Stat5, or E2F1, respectively, were treated with or without the indicated concentrations of platinum complex, PLATINUM-401 or Cisplatin, for 30 min at room temperature prior to incubation with radiolabeled oligonucleotide probes, and subjected to EMSA analysis. (FIG. 1A) (i) Stat1 and Stat3 binding activities to hSIE probe, (ii) Stat1 and Stat5 binding activities to MGFe probe, and (iii) plot of % oligonucleotide probe-STAT:STAT complexes versus concentration of PLATINUM-401. […] Positions of STAT: STAT-DNA complexes in gel are labeled. In (A) to (C), the control lanes represent DMSO (vehicle)-treatment.
Nuclear extract preparation and gel shift assays—Nuclear extract preparation from NIH3T3 stimulated by rhIL-6, NIH3T3/hEGFR stimulated by rhEGF, v-Src-transformed fibroblasts (NIH3T3/v-Src) or tumor cell lines and electrophoretic mobility shift assay were carried out as previously described (Turkson et al., 1998; Garcia et al., 1997; Yu et al., 1995). The ^32P-labeled oligonucleotide probes used are hSIE (high affinity sis-inducible element from the c-fos gene, m67 variant, 5′-[…]) (SEQ ID NO:1) that binds Stat1 and Stat3 (Garcia et al., 1997; Wagner et al., 1990) and MGFe (mammary gland factor element from the bovine β-casein gene promoter, 5′-AGATTTCTAGGAATTCAA) (SEQ ID NO:2) for Stat1 and Stat5 binding (49,50). Except where indicated, inhibitor compound was pre-incubated with the nuclear extract for 30 min at room temperature prior to incubation with radiolabeled probe.
Compounds from the NCI 2000 diversity set were screened for inhibition of Stat3 signaling in an in vitro DNA-binding activity assay based on analysis by electrophoretic mobility shift assay (EMSA). […]

[2] = target: T2, E2F1 (Homo sapiens, UniProt Q01094); experiment: In vitro E2F1 DNA-binding activity assay, EMSA with DHFR promoter probe; details: cell lysates pre-incubated with compound before DHFR promoter probe
T2 construct: made in house; host or cells: Sf-9 insect cells infected with baculovirus
Description: as §1
In control studies, the effect of PLATINUM-401 was evaluated on the DNA-binding activity of the E2F1 protein that is unrelated to STATs.

T2 sequence (Q01094 whole entry, species assumed): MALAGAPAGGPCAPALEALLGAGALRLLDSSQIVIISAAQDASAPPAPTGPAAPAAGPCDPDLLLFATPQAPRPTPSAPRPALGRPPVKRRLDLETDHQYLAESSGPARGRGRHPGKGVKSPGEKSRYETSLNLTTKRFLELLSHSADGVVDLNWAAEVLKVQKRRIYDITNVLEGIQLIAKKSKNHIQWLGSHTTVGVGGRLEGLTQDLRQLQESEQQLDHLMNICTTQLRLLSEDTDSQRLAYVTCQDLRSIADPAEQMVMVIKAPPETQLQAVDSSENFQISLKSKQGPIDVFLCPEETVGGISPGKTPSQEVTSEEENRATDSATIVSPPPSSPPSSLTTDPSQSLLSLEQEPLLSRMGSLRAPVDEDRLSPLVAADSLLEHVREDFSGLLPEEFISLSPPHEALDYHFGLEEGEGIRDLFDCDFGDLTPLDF

CC(O)CN1CCN(CC(C)O)CC1 (stereo not drawn) [PLATINUM-401]
IC50 [1]: 4.1 µM
effect on DNA-binding activity of Stat1:Stat1 homodimer ([1]; pre-incubated 30 min before probe): to a lesser extent
effect on E2F1 DNA-binding activity [2]: no significant effect

From patent US11571418B2, “Platinum compounds that inhibit constitutive STAT3 signaling and induce cell cycle arrest and apoptosis of malignant cells” (H. LEE MOFFITT CANCER CENTER AND RESEARCH INSTITUTE, INC., priority 2011, dated 2023)
